Test [1] addresses T1, purified recombinant human GAC (GLS1) (Homo sapiens, UniProt O94925).
T1 sequence (O94925 55-598 isoform O94925-3 limits assumed): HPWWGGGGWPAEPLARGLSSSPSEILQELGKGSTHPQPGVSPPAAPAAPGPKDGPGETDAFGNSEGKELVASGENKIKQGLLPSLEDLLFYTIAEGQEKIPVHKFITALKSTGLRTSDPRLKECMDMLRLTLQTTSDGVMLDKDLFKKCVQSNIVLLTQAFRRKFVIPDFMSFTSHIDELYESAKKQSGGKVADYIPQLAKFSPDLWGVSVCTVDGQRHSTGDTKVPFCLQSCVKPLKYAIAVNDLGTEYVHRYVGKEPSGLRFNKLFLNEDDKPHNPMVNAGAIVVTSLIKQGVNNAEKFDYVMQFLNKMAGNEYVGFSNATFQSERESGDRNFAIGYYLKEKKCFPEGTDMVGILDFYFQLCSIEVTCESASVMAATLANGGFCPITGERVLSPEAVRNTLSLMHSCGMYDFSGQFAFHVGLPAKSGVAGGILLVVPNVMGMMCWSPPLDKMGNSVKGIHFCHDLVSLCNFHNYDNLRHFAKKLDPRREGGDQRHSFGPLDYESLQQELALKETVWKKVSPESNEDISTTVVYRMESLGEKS
Put plainly: GLS1 Enzymatic Activity Assay (dual-coupled enzymatic assay). Format: biochemical. The essentials: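 Recombinant human GAC (2 nM) preincubated with 50 mM potassium phosphate, then inhibitor (10 min each, RT); 1 mM glutamine, pH 7.4 Hepes buffer, 1% DMSO. Glutamate coupled via glutamate oxidase/HRP to resorufin (Ex 530/Em 590), kinetic or 20-min endpoint; IC50 by four-parameter logistic fit.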

The next test deals with A549 cells. Put plainly: Proliferation Assay (A549 cell viability, Cell Titer Fluor). The format is cell-based. The conditions noted are these: Homo sapiens, 72 hours. Summed up: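 Seed A549 at 1000 cells/well and culture 24 h. Add compound (final DMSO 0.5%) and incubate 72 h at 37 °C. Add Cell Titer Fluor, mix 15 min, incubate 30 min, read fluorescence and fit EC50 by four-parameter logistic.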

Some results are limits rather than exact numbers.

With `O=C(NCc1cc(C(F)(F)F)ccn1)c1cn(CCCCc2cc3c(C4CC4)c(C4CC4)[nH]c3nn2)nn1` [Example 210, 1-(4-{5,6-dicyclopropyl-7H-pyrrolo[2,3-c]pyridazin-3-yl}butyl)-N-{[4-(trifluoromethyl)pyridin-2-yl]methyl}-1H-1,2,3-triazole-4-carboxamide], the concentration for half-maximal inhibition (IC50) (in general, the point on the concentration scale where inhibition reaches its midpoint) in test [1] is less than 100 nM. Moreover, the EC50 (usually the concentration at which the effect is half-maximal) in the test on A549 cells was in the range of 100 to 500 nM.
`Cn1ccc(CNC(=O)c2cn(CCCCc3cc4cc(C5CC5)[nH]c4nn3)nn2)n1` [Example 52, 1-(4-{6-cyclopropyl-7H-pyrrolo[2,3-c]pyridazin-3-yl}butyl)-N-[(1-methyl-1H-pyrazol-3-yl)methyl]-1H-1,2,3-triazole-4-carboxamide]: the IC50 in test [1] fell in the range of 100 to 500 nM. In addition, the EC50 with A549 cells was 500 to 5000 nM.
The corresponding values for `Cc1ccc(CNC(=O)c2cn(CCCCc3cc4cc(-c5cc(F)cc(F)c5)[nH]c4nn3)nn2)cn1` [Example 232, 1-{4-[6-(3,5-difluorophenyl)-7H-pyrrolo[2,3-c]pyridazin-3-yl]butyl}-N-[(6-methylpyridin-3-yl)methyl]-1H-1,2,3-triazole-4-carboxamide] are less than 100 nM and 100 to 500 nM.
The corresponding values for `O=C(Nc1nnc(CCCCc2cc3cc[nH]c3nn2)s1)[C@@H](O)c1ccccc1` [Example 66, (2S)-2-hydroxy-2-phenyl-N-[5-(4-{7H-pyrrolo[2,3-c]pyridazin-3-yl}butyl)-1,3,4-thiadiazol-2-yl]acetamide] are 100 to 500 nM and 500 to 5000 nM.
As to `CS(=O)(=O)c1cccc(-c2c(C3CC3)[nH]c3nnc(CCCCn4cc(C(=O)NCc5ccccn5)nn4)cc23)c1` [Example 136, 1-{4-[6-cyclopropyl-5-(3-methanesulfonylphenyl)-7H-pyrrolo[2,3-c]pyridazin-3-yl]butyl}-N-(pyridin-2-ylmethyl)-1H-1,2,3-triazole-4-carboxamide], the IC50 in test [1] was less than 100 nM. The same compound returned an EC50 in the test with A549 cells of 500 to 5000 nM.
`O=C(NCc1cc(OC(F)(F)F)ccc1F)c1cn(CCCCc2cc3cc(C4CN(S(=O)(=O)C(F)(F)F)C4)[nH]c3nn2)nn1` [Example 234, N-{[2-fluoro-5-(trifluoromethoxy)phenyl]methyl}-1-{4-[6-(1-trifluoromethanesulfonyl-azetidin-3-yl)-7H-pyrrolo[2,3-c]pyridazin-3-yl]butyl}-1H-1,2,3-triazole-4-carboxamide]: in test [1], the IC50 is less than 100 nM. In addition, the EC50 in the test with A549 cells was less than 100 nM.
As to `O=C(NCc1cccc(OC(F)(F)F)c1)c1cn(CCCCc2cc3cc(C4CC4)[nH]c3nn2)nn1` [Example 32, 1-(4-{6-cyclopropyl-7H-pyrrolo[2,3-c]pyridazin-3-yl}butyl)-N-{[3-(trifluoromethoxy)phenyl]methyl}-1H-1,2,3-triazole-4-carboxamide], in test [1], the half-maximal inhibitory concentration (IC50) is less than 100 nM. The EC50 in the test on A549 cells is 100 to 500 nM.
The corresponding values for `Cc1ccc(CNC(=O)c2cn(CCCCc3cc4c(-c5ccoc5)c(C5CC5)[nH]c4nn3)nn2)cn1` [Example 172, 1-{4-[6-cyclopropyl-5-(furan-3-yl)-7H-pyrrolo[2,3-c]pyridazin-3-yl]butyl}-N-[(6-methylpyridin-3-yl)methyl]-1H-1,2,3-triazole-4-carboxamide] are less than 100 nM and less than 100 nM.
As for `O=C(NCc1ccc(C(F)(F)F)nc1)c1cn(CCCCc2cc3c(-c4ccoc4)c(C4CC4)[nH]c3nn2)nn1` [Example 188, 1-{4-[6-cyclopropyl-5-(furan-3-yl)-7H-pyrrolo[2,3-c]pyridazin-3-yl]butyl}-N-{[6-(trifluoromethyl)pyridin-3-yl]methyl}-1H-1,2,3-triazole-4-carboxamide], in test [1], the IC50 was less than 100 nM. The same compound yielded an EC50 in the test with A549 cells of 100 to 500 nM.
In the same order, the values of `Cc1ccc(CNC(=O)c2cn(CCCCc3cc4c(C5=CCOCC5)c(C5CC5)[nH]c4nn3)nn2)cn1` [Example 196, 1-{4-[6-cyclopropyl-5-(3,6-dihydro-2H-pyran-4-yl)-7H-pyrrolo[2,3-c]pyridazin-3-yl]butyl}-N-[(6-mcthylpyridin-3-yl)methyl]-1H-1,2,3-triazole-4-carboxamide] are less than 100 nM and 100 to 500 nM.
For the compound `N#Cc1ccc(CNC(=O)c2cn(CCCCc3cc4cc(C5CC5)[nH]c4nn3)nn2)cn1` [Example 53, N-[(6-cyanopyridin-3-yl)methyl]-1-(4-{6-cyclopropyl-7H-pyrrolo[2,3-c]pyridazin-3-yl}butyl)-1H-1,2,3-triazole-4-carboxamide], the IC50 in test [1] is 100 to 500 nM. In the test on A549 cells, this compound came in with an EC50 of 500 to 5000 nM.
`CC(C)Cc1cc2cc(CCCCn3cc(C(=O)NCc4ccccc4)nn3)nnc2[nH]1` [Example 13, N-benzyl-1-(4-(6-isobutyl-7H-pyrrolo[2,3-c]pyridazin-3-yl)butyl)-1H-1,2,3-triazole-4-carboxamide]: the 50% inhibitory concentration (IC50) in test [1] was in the range of 100 to 500 nM. Moreover, the EC50 with A549 cells was in the range of 500 to 5000 nM.
With `CC(C)(C)OC(=O)N1CCC(c2cc3cc(CCCCn4cc(C(=O)NCc5cc(OC(F)(F)F)ccc5F)nn4)nnc3[nH]2)CC1` [Example 150, tert-butyl 4-(3-{4-[4-({[2-fluoro-5-(trifluoromethoxy)phenyl]methyl}carbamoyl)-1H-1,2,3-triazol-1-yl]butyl}-7H-pyrrolo[2,3-c]pyridazin-6-yl)piperidine-1-carboxylate], the IC50 in test [1] is less than 100 nM. For the same compound, in the test with A549 cells, the EC50 is less than 100 nM.
With `O=C(Cc1ccccc1)Nc1nnc(CCCCc2cc3cc(Cc4ccccc4)[nH]c3nn2)s1` [Example 4, N-(5-(4-(6-benzyl-7H-pyrrolo[2,3-c]pyridazin-3-yl)butyl)-1,3,4-thiadiazol-2-yl)-2-phenylacetamide], in test [1], the IC50 was less than 100 nM. In the test with A549 cells, this compound gave an EC50 of 100 to 500 nM.
In the same order, the values of `CC(C)(F)C(=O)N1CC(c2cc3cc(CCCCn4cc(C(=O)NCc5cc(OC(F)(F)F)ccc5F)nn4)nnc3[nH]2)C1` [Example 227, 1-(4-{6-[1-(2-fluoro-2-methylpropanoyl)azetidin-3-yl]-7H-pyrrolo[2,3-c]pyridazin-3-yl}butyl)-N-{[2-fluoro-5-(trifluoromethoxy)phenyl]methyl}-1H-1,2,3-triazole-4-carboxamide] are less than 100 nM and less than 100 nM.
The corresponding values for `O=C(NCc1cccc(OC(F)(F)F)c1)c1cn(CCCCc2cc3cc(C4CNC4)[nH]c3nn2)nn1` [Example 107, 1-{4-[6-(azetidin-3-yl)-7H-pyrrolo[2,3-c]pyridazin-3-yl]butyl}-N-{[3-(trifluoromethoxy)phenyl]methyl}-1H-1,2,3-triazole-4-carboxamide] are 100 to 500 nM and 500 to 5000 nM.
With `CC(=O)Nc1ccc(-c2c(C3CC3)[nH]c3nnc(CCCCn4cc(C(=O)NCc5ccc(C)nc5)nn4)cc23)cc1` [Example 179, 1-{4-[6-cyclopropyl-5-(4-acetamidophenyl)-7H-pyrrolo[2,3-c]pyridazin-3-yl]butyl}-N-[(6-methylpyridin-3-yl)methyl]-1H-1,2,3-triazole-4-carboxamide], the IC50 in test [1] was less than 100 nM. Further, the EC50 in the test with A549 cells was in the range of 500 to 5000 nM.
In the same order, the values of `O=C(NCc1ccccn1)c1cn(CCCCc2cc3c(-c4ccsc4)c(C4CC4)[nH]c3nn2)nn1` [Example 139, 1-{4-[6-cyclopropyl-5-(thiophen-3-yl)-7H-pyrrolo[2,3-c]pyridazin-3-yl]butyl}-N-(pyridin-2-ylmethyl)-1H-1,2,3-triazole-4-carboxamide] are less than 100 nM and 100 to 500 nM.
As for `O=C(Nc1nnc(CCCCc2cc3cc(Cc4ccccc4)[nH]c3nn2)s1)[C@@H](O)c1ccccc1` [Example 5, (S)—N-(5-(4-(6-benzyl-7H-pyrrolo[2,3-c]pyridazin-3-yl)butyl)-1,3,4-thiadiazol-2-yl)-2-hydroxy-2-phenylacetamide], in test [1], the IC50 was less than 100 nM. Besides, in the test on A549 cells, the EC50 was 100 to 500 nM.
In the same order, the values of `O=C(NCc1ccc(CF)nc1)c1cn(CCCCc2cc3c(-c4ccc(F)cc4F)c(C4CC4)[nH]c3nn2)nn1` [Example 222, 1-{4-[6-cyclopropyl-5-(2,4-difluorophenyl)-7H-pyrrolo[2,3-c]pyridazin-3-yl]butyl}-N-{[6-(fluoromethyl)pyridin-3-yl]methyl}-1H-1,2,3-triazole-4-carboxamide] are less than 100 nM and 100 to 500 nM.
As to `O=C(NCc1ccccn1)c1cn(CCCCc2cc3c(-c4ccccc4)c[nH]c3nn2)nn1` [Example 20, 1-(4-(5-phenyl-7H-pyrrolo[2,3-c]pyridazin-3-yl)butyl)-N-(pyridin-2-ylmethyl)-1H-1,2,3-triazole-4-carboxamide], the IC50 in test [1] was 500 to 5000 nM. In the test on A549 cells, this compound came in with an EC50 greater than 5000 nM.
In the same order, the values of `NC(=O)c1nnc(CCCCc2cc3cc(Cc4ccccc4)[nH]c3nn2)s1` [Example 80, 5-(4-{6-benzyl-7H-pyrrolo[2,3-c]pyridazin-3-yl}butyl)-1,3,4-thiadiazole-2-carboxamide] are 100 to 500 nM and 500 to 5000 nM.
The corresponding values for `O=C(NCCO)c1nnc(CCCCc2cc3cc(Cc4ccccc4)[nH]c3nn2)s1` [Example 68, 5-(4-{6-benzyl-7H-pyrrolo[2,3-c]pyridazin-3-yl}butyl)-N-(2-hydroxyethyl)-1,3,4-thiadiazole-2-carboxamide] are 500 to 5000 nM and 500 to 5000 nM.

Values taken from patent US20160002248A1, “GLS1 INHIBITORS FOR TREATING DISEASE” (Board of Regents, The University of Texas System, priority 2014, published 2016).
